Consider one compound from US20030199098A1, “Advanced tool for the quantification uniformity within biological processes and conversions” (priority 2000, published 2003).

By half-life is commonly meant the time in which the quantity being followed falls by half.

For series [1] the following is noted: humans, routine clinical experiments.
Description: This tool is applicable no matter which technique or equipment is used to obtain the initial readings.
The nature of another series: clinical. The following applies: male, human, in vivo. An excerpt: FIG. 3 ethanol concurrency test (simultaneously performed on the same human subject during a single experimental session) in a graphical representation
The following TABLE 1 of results describes the FIG. 3 curves:
The INTOXIMETER EC/IR 3000, which was used for the data presented in the TABLE 1, was made by Intoximeter, Inc. of St. Louis, Mo. The transcutaneous ethanol sensors (TES #33, #39) were made by Giner Inc. of Waltham, Mass.

As for `CCO` [ethanol], the “Index-K efficiency corridor for alcohol catabolism” value in series [1] is given as “up to 3.4”. The compound further yielded a half-life in “clinical” of 1.48 h.
